# Counter-ions that a name gives are not always drawn.
# Legend:
# [1] = target: T1, α-1A adrenoceptor (dog prostate) (Homo sapiens, UniProt P35348); test: Functional antagonism of phenylephrine-induced contraction of canine prostate strips; assay type: cell-based, dog (canine); details: vs phenylephrine-induced contraction, Schild plot
# T1 construct: from tissue; host or cells: canine prostate strips
# T1 sequence (P35348 1-466): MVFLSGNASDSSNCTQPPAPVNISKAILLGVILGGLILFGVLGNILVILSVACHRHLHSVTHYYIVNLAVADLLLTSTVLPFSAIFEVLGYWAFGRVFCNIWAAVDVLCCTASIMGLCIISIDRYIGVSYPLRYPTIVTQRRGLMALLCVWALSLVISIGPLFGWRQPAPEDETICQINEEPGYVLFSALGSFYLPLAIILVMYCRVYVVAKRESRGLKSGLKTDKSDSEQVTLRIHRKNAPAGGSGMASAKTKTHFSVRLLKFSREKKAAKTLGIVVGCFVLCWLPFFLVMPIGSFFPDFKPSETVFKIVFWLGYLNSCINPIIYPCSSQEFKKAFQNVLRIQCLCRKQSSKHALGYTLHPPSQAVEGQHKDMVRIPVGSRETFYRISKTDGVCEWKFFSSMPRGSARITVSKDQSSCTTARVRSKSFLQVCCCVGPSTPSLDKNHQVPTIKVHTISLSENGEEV
# Excerpt: Canine prostate strips were used in vitro as previously described (Hieble, J. P., Boyce, A. J. and Caine, M., Fed. Proc., 45: 2609-2614 (1986)), to determine antagonist potencies against phenylephrine-induced contractions.
# (§1) Functional assays indicative of pharmacologically defined α-1 adrenoceptors were used to further characterize compounds. Inhibition of phenylephrine (PE)-induced contraction of canine prostate smooth muscle can be correlated with α-1A adrenoceptor activation. […] For each of these models, agonist dose response curves were repeated against increasing concentrations of test agent to derive a Schild plot [log ([…]) against log (molarity of test agent)] to determine the pA2.
# [2] = target: T2, α-1B adrenoceptor (rat spleen) (Rattus norvegicus, UniProt P15823); test: Functional antagonism of phenylephrine-induced contraction of rat spleen; assay type: cell-based; details: vs phenylephrine-induced contraction, Schild plot
# T2 construct: PE-induced contraction of rat spleen; from tissue; host or cells: isolated rat spleen
# T2 sequence (P15823 1-515): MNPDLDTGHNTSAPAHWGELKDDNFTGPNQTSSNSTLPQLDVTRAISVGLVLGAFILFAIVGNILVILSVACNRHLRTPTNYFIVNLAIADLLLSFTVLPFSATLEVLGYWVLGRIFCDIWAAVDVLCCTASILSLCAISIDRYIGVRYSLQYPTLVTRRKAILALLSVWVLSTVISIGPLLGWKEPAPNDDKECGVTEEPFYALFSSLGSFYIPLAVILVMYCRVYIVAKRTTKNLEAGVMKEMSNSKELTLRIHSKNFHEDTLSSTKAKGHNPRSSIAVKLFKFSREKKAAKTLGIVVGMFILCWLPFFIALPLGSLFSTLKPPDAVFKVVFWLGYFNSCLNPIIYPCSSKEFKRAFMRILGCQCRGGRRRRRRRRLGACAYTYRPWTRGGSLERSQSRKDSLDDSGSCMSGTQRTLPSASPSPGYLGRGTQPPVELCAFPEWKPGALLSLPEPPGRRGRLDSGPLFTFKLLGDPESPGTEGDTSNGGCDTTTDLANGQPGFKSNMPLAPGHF
# Excerpt: as §1
# [3] = tested on: BPH patients; details: cited from earlier work; for improvement in urinary flow rates and subjective symptom scores: longer term studies
# [4] = target: T3, α-1A adrenoceptor (rat vas deferens) (Rattus norvegicus, UniProt P43140); test: Functional antagonism of phenylephrine-induced contraction of rat vas deferens; assay type: cell-based; details: vs phenylephrine-induced contraction, Schild plot
# T3 construct: PE-induced contraction of rat vas deferens; from tissue; host or cells: isolated rat vas deferens
# T3 sequence (P43140 1-466): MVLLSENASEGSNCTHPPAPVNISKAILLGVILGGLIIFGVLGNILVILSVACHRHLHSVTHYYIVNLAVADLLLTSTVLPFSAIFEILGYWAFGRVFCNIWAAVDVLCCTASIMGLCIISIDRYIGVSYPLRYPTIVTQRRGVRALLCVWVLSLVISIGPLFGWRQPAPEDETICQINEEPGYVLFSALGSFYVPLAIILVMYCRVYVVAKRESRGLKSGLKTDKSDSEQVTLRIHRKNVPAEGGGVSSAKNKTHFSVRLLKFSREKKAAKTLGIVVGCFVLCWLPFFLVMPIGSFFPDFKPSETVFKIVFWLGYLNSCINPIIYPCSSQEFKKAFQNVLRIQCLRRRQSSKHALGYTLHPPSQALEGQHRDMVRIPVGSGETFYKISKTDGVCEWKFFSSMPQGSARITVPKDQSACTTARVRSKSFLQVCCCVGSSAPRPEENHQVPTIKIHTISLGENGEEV
# Excerpt: as §1
smiles,measurement,setting,value
"CCCOC(=O)c1ccc2c(=O)n(CCN3C[C@@H]4CCc5c(OC)cccc5[C@@H]4C3)c(=O)[nH]c2c1 [Example 72, hydrochloride]",pA2 Dog Prostate [α-1A],[1],8.57
COc1cc2nc(N3CCN(C(=O)C4CCCO4)CC3)nc(N)c2cc1OC (stereo not shown) [terazosin],pA2 Rat Spleen [α-1B],[2],8.6
same,improvement in urinary flow rates and subjective symptom scores,[3],significant improvements in urinary flow rates and subjective symptom scores
same,clinical efficacy in BPH,[3]; non-selective α-1 blockers,Clinical efficacy of α-1 antagonists in BPH has been demonstrated
"COc1cccc2c1CC[C@H]1CN(CCn3c(=O)[nH]c4c(OC)c(OC)ccc4c3=O)C[C@@H]21 [Example 81, hydrochloride]",pA2 Rat Vas Deferens [α-1A],[4],8.9
same,pA2 Rat Spleen [α-1B],[2],8.15
same,pA2 Dog Prostate [α-1A],[1],9.45
"COc1cccc2c1CC[C@H]1CN(CCn3c(=O)[nH]c4c(-c5ccccc5)csc4c3=O)C[C@@H]21 (relative stereo) [Example 31, 3-[2-(cis-6-Methoxy-2,3,3a,4,5,9b-hexahydro-[1H]-benz[e]isoindol-1-yl)ethyl]-7-phenylthieno[3.2-d]pyrimidine-2,4(1H,3H)-dione methanesulfonate]",pA2 Dog Prostate [α-1A],[1],8.63
"COc1cccc2c1CC[C@@H]1CN(CCn3c(=O)[nH]c4ccccc4c3=O)C[C@H]21 (relative stereo) [Example 1, 3-[2-(cis-9-Methoxy-2,3,3a,4,5,9b-hexahydro-[1H]-benz[e]isoindol-1-yl)ethyl]-[1H,3H]-quinazoline-2,4(1H,3H)-dione hydrochloride]",pA2 Rat Vas Deferens [α-1A],[4],8.49
same,pA2 Rat Spleen [α-1B],[2],8
same,pA2 Dog Prostate [α-1A],[1],9.29
O=C(NC1CCN(CCc2c[nH]c3ccccc23)CC1)c1ccccc1 [indoramin],improvement in urinary flow rates and subjective symptom scores,[3],significant improvements in urinary flow rates and subjective symptom scores
COc1cc2nc(N3CCN(C(=O)C4COc5ccccc5O4)CC3)nc(N)c2cc1OC (stereo not shown) [doxazosin],improvement in urinary flow rates and subjective symptom scores,[3],significant improvements in urinary flow rates and subjective symptom scores
"COc1cccc2c1CC[C@H]1CN(CCn3c(=O)[nH]c4cc(C)c(C)cc4c3=O)C[C@@H]21 [Example 68, hydrochloride]",pA2 Dog Prostate [α-1A],[1],8.28
"CCOc1ccc2c(=O)n(CCN3C[C@@H]4CCc5c(OC)cccc5[C@@H]4C3)c(=O)[nH]c2c1C [Example 78, 3-[2-((3aR,9bR)cis-6-Methoxy-2,3,3a,4,5,9b-hexahydro-[1H]-benz[e]isoindol-1I-yl)ethyl]-7-ethox-8-methyl-quinazoline-2,4(1H,3H|-dione hydrochloride]",pA2 Dog Prostate [α-1A],[1],8.03
COc1cc2nc(N3CCN(C(=O)c4ccco4)CC3)nc(N)c2cc1OC [prazosin],improvement in urinary flow rates and subjective symptom scores,[3],significant improvements in urinary flow rates and subjective symptom scores

# — patent publication US5792767A, “Bicyclic substituted hexahydrobenz [e] isoindole alpha-1 adrenergic antagonists” (priority 1995, dated 1998)
